Test results: ChEMBL document CHEMBL1201862, “PubChem BioAssay data set” (2004)
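Cultured in 96-well plates, cells were exposed to test compound for 48 hours across five concentrations. GI50 is the concentration that inhibits growth by half.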 Active and inactive are the calls of the source. No stated cut-off is given here; in the data, active = GI50 up to about 1.1 µM and inactive = higher.

Assays:
Assay in all cases: NCI tumour cell line growth inhibition, 48 h
HCT-116 = tested on: HCT-116
SW-620 = tested on: SW-620
COLO 205 = tested on: COLO 205
SF-268 = tested on: SF-268
MDA-MB-231 = tested on: MDA-MB-231
NCI-H23 = tested on: NCI-H23
HL-60 = tested on: HL-60
HCC 2998 = tested on: HCC 2998
SN12C = tested on: SN12C
RPMI-8226 = tested on: RPMI-8226
SK-MEL-28 = tested on: SK-MEL-28
NCI-H460 = tested on: NCI-H460
UO-31 = tested on: UO-31
MOLT-4 = tested on: MOLT-4
DU-145 = tested on: DU-145
ACHN = tested on: ACHN
A498 = tested on: A498
Hs-578T = tested on: Hs-578T
A549 = tested on: A549

Measured: GI50

O=C(NN1C(=O)C=CC1=O)c1ccccc1Nc1ccccc1C(=O)NN1C(=O)C=CC1=O
inactive: HCT-116 > 100 µM | SW-620 > 100 µM | COLO 205 > 100 µM | SF-268 > 100 µM | MDA-MB-231 > 100 µM | NCI-H23 > 100 µM | HL-60 > 100 µM | HCC 2998 > 100 µM | SN12C > 100 µM | RPMI-8226 > 100 µM | SK-MEL-28 > 100 µM | NCI-H460 > 100 µM | UO-31 > 100 µM | MOLT-4 > 100 µM | DU-145 > 100 µM | ACHN > 100 µM

O=C(Nc1ccc(Cl)cc1C(F)(F)F)C(=O)Nn1c(S)nc2ccccc2c1=O
inactive: HCT-116 > 100 µM | A498 > 100 µM | SW-620 > 100 µM | Hs-578T > 100 µM | SF-268 > 100 µM | MDA-MB-231 > 100 µM | A549 > 100 µM | NCI-H23 > 100 µM | HL-60 60.5 µM | HCC 2998 > 100 µM | SN12C > 100 µM | RPMI-8226 > 100 µM | SK-MEL-28 > 100 µM | NCI-H460 > 100 µM | UO-31 > 100 µM | MOLT-4 > 100 µM | ACHN > 100 µM

O=C1CCCCC/C1=C\c1cccc([N+](=O)[O-])c1
inactive: HCT-116 22.2 µM | A498 > 100 µM | SW-620 34.5 µM | COLO 205 51.1 µM | SF-268 18.5 µM | MDA-MB-231 23.8 µM | A549 44.6 µM | HL-60 17.7 µM | HCC 2998 21.2 µM | SN12C 45.7 µM | RPMI-8226 21.6 µM | SK-MEL-28 38.1 µM | NCI-H460 30.1 µM | UO-31 27.7 µM | MOLT-4 15.5 µM | DU-145 48.2 µM | ACHN 33.3 µM

CCCCNC(=S)c1ccc(OC(=O)Nc2ccc(Cl)cc2)cc1
inactive: HCT-116 38.4 µM | A498 85.1 µM | SW-620 > 100 µM | Hs-578T 57.7 µM | COLO 205 15.9 µM | SF-268 49.1 µM | A549 39.1 µM | NCI-H23 31.2 µM | HL-60 8.57 µM | HCC 2998 > 100 µM | RPMI-8226 65.2 µM | SK-MEL-28 22.3 µM | NCI-H460 10.4 µM | UO-31 19.7 µM | MOLT-4 11.4 µM | DU-145 > 100 µM | ACHN 70.6 µM

CCOC(=O)N(NC(=O)NC(C)C)c1ccccc1
inactive: HCT-116 > 100 µM | A498 > 100 µM | SW-620 > 100 µM | Hs-578T > 100 µM | COLO 205 > 100 µM | MDA-MB-231 > 100 µM | A549 > 100 µM | NCI-H23 > 100 µM | HL-60 60.1 µM | HCC 2998 84.1 µM | SN12C > 100 µM | SK-MEL-28 > 100 µM | NCI-H460 > 100 µM | UO-31 > 100 µM | MOLT-4 > 100 µM | ACHN > 100 µM

O=C1CCc2nc3ncccc3cc2C1
inactive: HCT-116 65.5 µM | A498 > 100 µM | SW-620 54.8 µM | COLO 205 > 100 µM | SF-268 51.8 µM | MDA-MB-231 > 100 µM | A549 > 100 µM | NCI-H23 > 100 µM | HCC 2998 > 100 µM | SN12C > 100 µM | RPMI-8226 64.1 µM | SK-MEL-28 > 100 µM | NCI-H460 99.5 µM | UO-31 79.8 µM | MOLT-4 29.9 µM | ACHN > 100 µM

O=S1(=O)c2ccccc2NC(c2ccc3ccccc3c2)CC1c1ccccc1F (stereo unspecified)
inactive: A498 > 100 µM | SW-620 > 100 µM | COLO 205 > 100 µM | SF-268 > 100 µM | A549 > 100 µM | NCI-H23 > 100 µM | HL-60 > 100 µM | HCC 2998 > 100 µM | SN12C > 100 µM | RPMI-8226 > 100 µM | SK-MEL-28 > 100 µM | NCI-H460 > 100 µM | UO-31 > 100 µM | MOLT-4 > 100 µM | ACHN > 100 µM

CC1CCC2C(C)(C)CC3(C)CCC1C23O (stereo unspecified)
inactive: HCT-116 14.8 µM | A498 18.5 µM | SW-620 16 µM | Hs-578T 16.7 µM | COLO 205 18.3 µM | MDA-MB-231 16.2 µM | A549 16.3 µM | NCI-H23 16.1 µM | HL-60 1.63 µM | SN12C 16.9 µM | SK-MEL-28 16.3 µM | NCI-H460 17 µM | UO-31 16.4 µM | MOLT-4 11.2 µM | ACHN 16.1 µM

O=[N+]([O-])c1ccc(-c2nc3ccccc3o2)cc1
inactive: HCT-116 > 100 µM | A498 > 100 µM | SW-620 > 100 µM | Hs-578T > 100 µM | COLO 205 > 100 µM | SF-268 > 100 µM | A549 > 100 µM | NCI-H23 > 100 µM | HCC 2998 > 100 µM | SN12C > 100 µM | RPMI-8226 > 100 µM | SK-MEL-28 > 100 µM | NCI-H460 > 100 µM | UO-31 > 100 µM | MOLT-4 > 100 µM | DU-145 > 100 µM | ACHN > 100 µM
